Bounds are passed on as bounds.

These results are taken from patent US20250206732A1, “COMPOUNDS AND METHODS FOR THE TARGETED DEGRADATION OF KRAS” (Arvinas Operations, Inc., priority 2022, published 2025).

For one assay, the target named is T1, AsPC-1 HiBiT-KRASG12D (Homo sapiens, UniProt P01116, G12D).
T1 construct: insert the HiBiT tag onto the N-terminus of one or more of the endogenous KRAS alleles; endogenous in cells; host or cells: AsPC-1 (ATCC CRL-1682), CRISPR-Cas9 knock-in clone, one tagged allele
T1 sequence (P01116 1-188 isoform P01116-2 G12D): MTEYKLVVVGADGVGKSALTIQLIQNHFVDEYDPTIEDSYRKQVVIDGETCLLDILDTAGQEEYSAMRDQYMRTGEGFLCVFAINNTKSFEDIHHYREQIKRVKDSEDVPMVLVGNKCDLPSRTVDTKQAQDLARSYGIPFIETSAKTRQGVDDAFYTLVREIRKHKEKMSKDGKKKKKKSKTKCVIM
Nature of the assay: HiBiT degradation assay (G12D), AsPC-1 HiBiT-KRASG12D cells. Conditions: 24 hours treatment; for Dmax: ASPC1, AsPC-1 HiBiT-KRASG12D cells, maximum degradation observed; for DC50: AsPC-1 HiBiT-KRASG12D cells, HiBiT luminescence. The assay is classed as cell-based. The method, boiled down:
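24 h cmpd treatment, 37° C/5% CO2, AsPC-1 HiBiT-KRASG12D clone (CRISPR N-term tag). Alamar blue 1×, 4 h, fluorescence. PBS wash, Nano-Glo HiBiT lytic reagent, 45 min RT, luminescence. Triplicates.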
On the technique in general: The HiBiT peptide binds its large partner to form an active luciferase.

A further assay addresses T2, SW1573 HiBiT-KRASG12C (Homo sapiens, UniProt P01116, G12C).
T2 construct: expressed in transfected cells
Put plainly: HiBiT degradation assay (G12C), SW1573 HiBiT-KRASG12C cells.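 As to DC50: Letter grades: C is 1000 to 3000 nM and D is above 3000 nM.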 The assay is classed as cell-based. As to conditions: 24 hours treatment. As to the method: Reagents. SW1573 (CRL-2170), AsPC-1 (CRL-1682), and SW620 (CCL-227) cells were purchased from ATCC. SW1573 cells are homozygous for the G12C mutation in KRAS, AsPC-1 cells are homozygous for the G12D mutation, and SW620 cells are homozygous for the G12V mutation. SW1573 cells were cultured in DMEM+F12+Glutamax (+Sodium Bicarbonate, +sodium pyruvate, ThermoFisher scientific, #10565) supplemented with 10% FBS (ThermoFisher scientific, #2060357) and 1% Antibiotic-Antimycotic (ThermoFisher scientific, #15240096). AsPC-1 cells were cultured in GIBCO RPMI-1640 (ThermoFisher scientific, catalog #61870-036 with Glutamax, No HEPES, No Na Pyruvate) supplemented with 10% FBS (ThermoFisher scientific, catalog #2060357) and 1× Penicillin-Streptomycin (ThermoFisher scientific, catalog #15140122, 10000 U/ml, 100×). SW620 cells were cultured in DMEM Glutamax (ThermoFisher scientific, catalog #10566016) supplemented with 10% FBS (ThermoFisher scientific, catalog #2060357) and 1× Penicillin-Streptomycin (ThermoFisher scientific, catalog #15140122, 10000 U/ml, 100×). For degradation assays, 384 well plates were used. Alamar blue was purchased from ThermoFisher scientific (A50101) and used according to manufacturer instructions. The Nano-Glo® HiBiT Lytic Detection System and Nano-Glo® HiBiT Blotting System were purchased from Promega (#N3050 and #N2410) and used according to manufacturer instructions.
HiBiT-tagged cell line generation. To create the SW1573 HiBiT-KRASG12C cell line, the nucleotide sequence encoding the 11 amino acid HiBiT tag from Promegal was appended to the N-terminus of the KRASG12C coding sequence. This synthesized DNA was cloned into a modified pcDNA3.1 vector under the control of the thymidine kinase (TK) promoter. This HiBiT-KRASG12C expressing plasmid was transfected into parental SW1573 cells and colonies were selected using 400 μg/mL zeocin. The resulting clonal lines were screened for expression of HiBiT-KRASG12C protein using Nano-Glo® HiBiT Blotting System. A luminescent band of the correct size for HiBiT-KRASG12C was detected in several clones. Clone E6 was selected for further studies.
HiBiT degradation assays (G12C and G12D). Either SW1573 HiBiT-KRasG12C or AsPC-1 HiBiT-KRasG12D cells were plated at 9000 or 15,000 cells/well in a 384 well plate (Corning #3770). Compounds of the present disclosure and positive controls were diluted in the appropriate cell media and applied to the plated cells resulting in a final concentration titration of 10 μM to 508 pM in 0.5% DMSO. Gambogic acid was used as a positive control for cytotoxicity and titrated from 10 μM to 78 nM. All assays were performed in triplicate. Cells were treated with compounds for 24 hours at 37° C. in an incubator containing 5% CO2. Following treatment, alamar blue was used to determine if any compounds led to a loss in cell viability after 24 hours. The 10× alamar blue reagent was added to a final concentration of 1× as recommended by the manufacturer and cells were returned to the incubator for 4 hours. Plates were then allowed to equilibrate to room temperature and fluorescence was measured using a Perkin-Elmer EnVision. After completion of the fluorescence read, the liquid from each well was removed and the cells were washed with PBS. The Nano-Glo® HiBiT detection reagent was prepared according to the manufacturer's instructions and added to each well after the PBS wash was removed. Following incubation at room temperature for 45 minutes, the luminescence was read using the ultra-sensitive luminescence aperture on the Envision instrument.
Data analysis. Fluorescence values from the alamar blue treatment were normalized to the DMSO-only control for each compound titration. […]

T2 sequence (P01116 1-188 isoform P01116-2 G12C): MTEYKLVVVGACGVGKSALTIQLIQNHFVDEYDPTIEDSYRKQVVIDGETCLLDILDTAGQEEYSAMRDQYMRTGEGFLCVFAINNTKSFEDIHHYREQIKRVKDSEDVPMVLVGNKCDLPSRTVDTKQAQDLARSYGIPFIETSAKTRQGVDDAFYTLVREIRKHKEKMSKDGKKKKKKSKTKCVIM

In general, Dmax refers to the largest share of the target that was removed. One may read the DC50 as the concentration at which degradation of the target reaches its halfway point. A low value points to a more potent degrader. Turning to `CCc1cccc2cc(O)cc(-c3ncc4c(N5CC6CCC(C5)N6)nc(OC[C@]56CCCN5[C@@H](COCC(=O)N[C@H](C(=O)N5C[C@H](O)C[C@H]5C(=O)N[C@@H](C)c5ccc(-c7scnc7C)cc5)C(C)(C)C)CC6)nc4c3F)c12` [Compound 1, (2S,4R)-1-[(2S)-2-[[2-[[(3R,8R)-8-[[4-(3,8-diazabicyclo[3.2.1]octan-3-yl)-7-(8-ethyl-3-hydroxy-1-naphthyl)-8-fluoro-pyrido[4,3-d]pyrimidin-2-yl]oxymethyl]-1,2,3,5,6,7-hexahydropyrrolizin-3-yl]methoxy]acetyl]amino]-3,3-dimethyl-butanoyl]-4-hydroxy-N-[(1S)-1-[4-(4-methylthiazol-5-yl)phenyl]ethyl]pyrrolidine-2-carboxamide], the Dmax on AsPC-1 HiBiT-KRASG12D was 80 to 100%; on SW1573 HiBiT-KRASG12C (maximum degradation observed) it was 20 to 60%. The values for the DC50 on AsPC-1 HiBiT-KRASG12D and on SW1573 HiBiT-KRASG12C (HiBiT luminescence) were 600 to 1000 nM and above 3000 nM, respectively.

Take `CCc1cccc2cc(O)cc(-c3ncc4c(N5CC6CCC(C5)N6)nc(OC[C@@]56CCCN5[C@H](CN5CCC(F)(COc7cc([C@H](C(=O)N8C[C@H](O)C[C@H]8C(=O)N[C@@H](C)c8ccc(-c9scnc9C)cc8)C(C)C)on7)CC5)CC6)nc4c3F)c12` [Compound 335, (2S,4R)-1-[(2R)-2-[3-[[1-[[(3S,8S)-8-[[4-(3,8-diazabicyclo[3.2.1]octan-3-yl)-7-(8-ethyl-3-hydroxy-1-naphthyl)-8-fluoro-pyrido[4,3-d]pyrimidin-2-yl]oxymethyl]-1,2,3,5,6,7-hexahydropyrrolizin-3-yl]methyl]-4-fluoro-4-piperidyl]methoxy]isoxazol-5-yl]-3-methyl-butanoyl]-4-hydroxy-N-[(1S)-1-[4-(4-methylthiazol-5-yl)phenyl]ethyl]pyrrolidine-2-carboxamide]: at AsPC-1 HiBiT-KRASG12D, the Dmax was in the range of 80 to 100% and the half-maximal degradation concentration (DC50) was below 600 nM.

On AsPC-1 HiBiT-KRASG12D, `CCc1cccc2cc(O)cc(-c3ncc4c(N5CC6CCC(C5)N6)nc(OC[C@@]56CCCN5[C@H](CN5CCC(F)(COc7cc([C@@H](C(=O)N8C[C@H](O)C[C@H]8C(=O)N[C@@H](C)c8ccc(-c9scnc9C)cc8)C(C)C)on7)CC5)CC6)nc4c3F)c12` [Compound 336, (2S,4R)-1-[(2S)-2-[3-[[1-[[(3S,8S)-8-[[4-(3,8-diazabicyclo[3.2.1]octan-3-yl)-7-(8-ethyl-3-hydroxy-1-naphthyl)-8-fluoro-pyrido[4,3-d]pyrimidin-2-yl]oxymethyl]-1,2,3,5,6,7-hexahydropyrrolizin-3-yl]methyl]-4-fluoro-4-piperidyl]methoxy]isoxazol-5-yl]-3-methyl-butanoyl]-4-hydroxy-N-[(1S)-1-[4-(4-methylthiazol-5-yl)phenyl]ethyl]pyrrolidine-2-carboxamide] had a Dmax of 20 to 60% and a DC50 of 1000 to 3000 nM.

Take `CCc1cccc2cc(O)cc(-c3ncc4c(N5CC6CCC(C5)N6)nc(OCCN5CCC(F)(COc6cc([C@H](C(=O)N7C[C@H](O)C[C@H]7C(=O)N[C@@H](C)c7ccc(-c8scnc8C)cc7)C(C)C)on6)CC5)nc4c3F)c12` [Compound 337, (2S,4R)-1-[(2R)-2-{3-[(1-{2-[(4-{3,8-diazabicyclo[3.2.1]octan-3-yl}-7-(8-ethyl-3-hydroxynaphthalen-1-yl)-8-fluoropyrido[4,3-d]pyrimidin-2-yl)oxy]ethyl}-4-fluoropiperidin-4-yl)methoxy]-1,2-oxazol-5-yl}-3-methylbutanoyl]-4-hydroxy-N-[(1S)-1-[4-(4-methyl-1,3-thiazol-5-yl)phenyl]ethyl]pyrrolidine-2-carboxamide]: at AsPC-1 HiBiT-KRASG12D, the Dmax fell in the range of 80 to 100% and the DC50 was below 600 nM.

At AsPC-1 HiBiT-KRASG12D, `CCc1cccc2cc(O)cc(-c3ncc4c(N5CC6CCC(C5)N6)nc(OC[C@]56CCCN5[C@H](COC(=O)N5CC7(C5)CN(c5cc([C@H](C(=O)N8C[C@H](O)C[C@H]8C(=O)N[C@@H](C)c8ccc(-c9scnc9C)cc8)C(C)C)on5)C7)CC6)nc4c3F)c12` [Compound 340, [(3S,8R)-8-[[4-(3,8-diazabicyclo[3.2.1]octan-3-yl)-7-(8-ethyl-3-hydroxy-1-naphthyl)-8-fluoro-pyrido[4,3-d]pyrimidin-2-yl]oxymethyl]-1,2,3,5,6,7-hexahydropyrrolizin-3-yl]methyl 6-[5-[(1S)-1-[(2S,4R)-4-hydroxy-2-[[(1S)-1-[4-(4-methylthiazol-5-yl)phenyl]ethyl]carbamoyl]pyrrolidine-1-carbonyl]-isobutyl]isoxazol-3-yl]-2,6-diazaspiro[3.3]heptane-2-carboxylate] returned a maximal degradation (Dmax) of 80 to 100% and a 50% degradation concentration (DC50) below 600 nM.

On to `CCc1cccc2cc(O)cc(-c3ncc4c(N5CC6CCC(C5)N6)nc(OC[C@@]56CCCN5[C@H](COC(=O)N5CCN(c7cc([C@@H](C(=O)N8C[C@H](O)C[C@H]8C(=O)N[C@@H](C)c8ccc(-c9scnc9C)cc8)C(C)C)on7)[C@H](C)C5)CC6)nc4c3F)c12` [Compound 341, [(3S,8S)-8-[[4-(3,8-diazabicyclo[3.2.1]octan-3-yl)-7-(8-ethyl-3-hydroxy-1-naphthyl)-8-fluoro-pyrido[4,3-d]pyrimidin-2-yl]oxymethyl]-1,2,3,5,6,7-hexahydropyrrolizin-3-yl]methyl (3R)-4-[5-[(1S)-1-[(2S,4R)-4-hydroxy-2-[[(1S)-1-[4-(4-methylthiazol-5-yl)phenyl]ethyl]carbamoyl]pyrrolidine-1-carbonyl]-isobutyl]isoxazol-3-yl]-3-methyl-piperazine-1-carboxylate], for which the DC50 on AsPC-1 HiBiT-KRASG12D was above 3000 nM.

At AsPC-1 HiBiT-KRASG12D, `CCc1cccc2cc(O)cc(-c3ncc4c(N5CC6CCC(C5)N6)nc(OC[C@@H]5CC[C@]6(COC(=O)N7CCN(c8cc([C@H](C(=O)N9C[C@H](O)C[C@H]9C(=O)N[C@@H](C)c9ccc(-c%10scnc%10C)cc9)C(C)C)on8)CC7)CCCN56)nc4c3F)c12` [Compound 342, [(3S,8S)-3-[[4-(3,8-diazabicyclo[3.2.1]octan-3-yl)-7-(8-ethyl-3-hydroxy-1-naphthyl)-8-fluoro-pyrido[4,3-d]pyrimidin-2-yl]oxymethyl]-1,2,3,5,6,7-hexahydropyrrolizin-8-yl]methyl 4-[5-[(1R)-1-[(2S,4R)-4-hydroxy-2-[[(1S)-1-[4-(4-methylthiazol-5-yl)phenyl]ethyl]carbamoyl]pyrrolidine-1-carbonyl]-isobutyl]isoxazol-3-yl]piperazine-1-carboxylate] yielded a Dmax of 80 to 100% and a DC50 below 600 nM.

At AsPC-1 HiBiT-KRASG12D, `CCc1cccc2cc(O)cc(-c3ncc4c(N5CC6CCC(C5)N6)nc(OC[C@H]5CC[C@@]6(COC(=O)N7CCN(c8cc([C@H](C(=O)N9C[C@H](O)C[C@H]9C(=O)N[C@@H](C)c9ccc(-c%10scnc%10C)cc9)C(C)C)on8)CC7)CCCN56)nc4c3F)c12` [Compound 343, [(3R,8R)-3-[[4-(3,8-diazabicyclo[3.2.1]octan-3-yl)-7-(8-ethyl-3-hydroxy-1-naphthyl)-8-fluoro-pyrido[4,3-d]pyrimidin-2-yl]oxymethyl]-1,2,3,5,6,7-hexahydropyrrolizin-8-yl]methyl 4-[5-[(1R)-1-[(2S,4R)-4-hydroxy-2-[[(1S)-1-[4-(4-methylthiazol-5-yl)phenyl]ethyl]carbamoyl]pyrrolidine-1-carbonyl]-2-methyl-propyl]isoxazol-3-yl]piperazine-1-carboxylate] yielded a Dmax of 80 to 100% and a half-maximal degradation concentration (DC50) below 600 nM.
